According to PMC13366330 (Acta Pharmaceutica Sinica. B, 2025):

Assays:
[1] = Body and organ weights, organ H&E in the antitumor experiment; assay type: in vivo, C57 mice; details: 100 mg/kg, intraperitoneal
TAMs in tumor tissue = assay: M2 polarization of TAMs in tumor tissue, flow cytometry; assay type: in vivo, C57 mice; details: 10 mg/kg, intraperitoneal

SMILES	liver H&E finding [1]	spleen weight [1]	percentage of M2 polarization in TAMs (TAMs in tumor tissue) [%]
CN(C)/N=N/c1[nH]cnc1C(N)=O [dacarbazine]	coagulative necrosis	significant decrease	–
C[C@H](NC(=O)c1c(N)nn2cccnc12)c1cc2cccc(C#Cc3cnn(C)c3)c2c(=O)n1-c1ccccc1 [IPI-549]	–	–	15.40
